Laboratory results taken from PubChem BioAssay (NCI).
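96-well plates; 48 h exposure; 5 concentrations. Endpoints by linear interpolation between flanking doses. Not reached: highest tested concentration assigned. The concentration for 50% growth inhibition is given as GI50. TGI is the concentration that stops growth completely.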

Tests used:
Test in all cases: inhibition of tumour cell growth, NCI panel, 48 h
[1] = test system: MDA-MB-231 breast
[2] = test system: SN12C renal
[3] = test system: UACC-257 melanoma
[4] = test system: SK-MEL-28 melanoma
[5] = test system: KM12 colon
[6] = test system: BT-549 breast
[7] = test system: CAKI-1 renal
[8] = test system: DMS 273 small cell lung
[9] = test system: KM20L2 colon
[10] = test system: DLD-1 colon

| Compound | GI50 [1] [µM] | TGI [1] [µM] | GI50 [2] [µM] | TGI [2] [µM] | GI50 [3] [µM] | TGI [3] [µM] | GI50 [4] [µM] | TGI [4] [µM] | GI50 [5] [µM] | TGI [5] [µM] | GI50 [6] [µM] | TGI [6] [µM] | GI50 [7] [µM] | TGI [7] [µM] | TGI [8] [µM] | TGI [9] [µM] | TGI [10] [µM] |
| --- | --- | --- | --- | --- | --- | --- | --- | --- | --- | --- | --- | --- | --- | --- | --- | --- | --- |
| CC1CCCC(C#N)(NOC2=NCCN2)C1 (stereo not drawn) | 19.4 | > 100 | 26.5 | > 100 | 97.5 | > 100 | > 100 | > 100 | 48.4 | > 100 | 19 | 42.3 | 22.7 | 79 | – | – | – |
| CCCCCCC(=O)C/C(CCC(=O)N(Cc1ccccc1)Cc1ccccc1)=N\NC(N)=O | – | – | – | > 100 | – | > 100 | – | > 100 | – | > 100 | – | – | – | > 100 | > 100 | > 100 | – |
| Nc1nc(Cl)nc2c1ncn2C1OC(CO)C(O)C1F (stereo not drawn) | 4.93 | > 26.5 | < 0.0439 | – | 4.17 | > 100 | > 9.44 | > 100 | 1.8 | > 100 | 0.664 | > 37.6 | 0.0351 | 0.959 | – | – | – |
| Cc1nc(NS(=O)(=O)c2ccc(NCN3C(=O)c4ccccc4C3=O)cc2)oc1C | > 100 | > 100 | > 100 | > 100 | > 100 | > 100 | > 100 | > 100 | > 100 | > 100 | > 100 | > 100 | > 100 | > 100 | – | – | – |
| CC(C)=Cc1cc(CCC/C(C)=C/Cc2c(O)cc(C)c(C(=O)O)c2O)co1 | – | > 100 | – | > 100 | – | > 100 | – | > 100 | – | > 100 | – | > 100 | – | > 100 | – | – | – |
| CC(C)=Cc1cc(C)c2ccc(C)c3c2c1C(C)=C(O)C3=O | 20.4 | 43.3 | 24.3 | 61.6 | 39.5 | > 100 | 0.933 | > 100 | 29.8 | > 100 | 28.7 | 89.5 | 23.8 | 65.9 | – | – | – |
| C=C(C)[C@@H]1CCc2c(O)c(O)c(=O)cc(C)c2C1 | – | > 100 | – | > 100 | – | > 100 | – | > 77.2 | – | > 100 | – | > 100 | – | 10.9 | – | – | – |
| CC(/C=C/C(=O)c1sc(C(N)=S)nc1C)=C\c1ccccc1 | – | – | – | > 100 | – | > 100 | – | > 100 | – | > 100 | – | – | – | 56.4 | 45.5 | > 100 | 57.4 |
| CC(=O)c1c[nH]c2ccc(-c3ccnc(Nc4ccc(NC(=O)C5CCCC5)c(CN5CCOCC5)c4)n3)cc12 | 0.0315 | 0.294 | 0.0301 | 3.97 | 0.0349 | 0.175 | 0.0404 | 0.27 | 0.0258 | 0.141 | 0.0328 | 0.904 | 0.0168 | 0.561 | – | – | – |
